Our source for the GI50 and TGI values is PubChem BioAssay (NCI).

Holding throughout (test): DTP human tumour cell line panel, 48 h
Assay [1] relates to CCRF-CEM leukemia.
For assay [2], the system named is COLO 205 colon.
In assay [3] the test system is SF-539 CNS.
The subject of assay [4] is HL-60(TB) leukemia.
Assay [5] deals with BT-549 breast.
The subject of assay [6] is SNB-19 CNS.
Assay [7] deals with HS 578T breast.
Assay [8] relates to HCC-2998 colon.
Assay [9] deals with A549 NSCLC.
Assay [10] deals with RXF 393 renal.

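Assay format: 96-well plates, 48-hour exposure. GI50 is the concentration that inhibits growth by half. TGI: total growth inhibition.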

For `COc1ccc(-c2cc(-c3cc(OC)c(OC)c(OC)c3)c(C#N)c(N3CCOCC3)n2)cc1O`, the GI50 in assay [1] was 6.46 µM; in [2], 21.5 µM; in assay [3], 2.52 µM; in [4], 1.34 µM; in assay [5] it was 19.9 µM; in assay [6], 5.33 µM. The figures for the GI50 in [7], in assay [8] and in [9] were 2.45 µM, 29.2 µM and 4.71 µM, respectively. Moreover, the TGI was > 77.9 µM in [1]; > 100 µM in assay [2]; 12.5 µM in assay [3]; 3.87 µM in [4]; > 100 µM in assay [5]; > 100 µM in [6]. Moreover, the figures for the TGI in assay [7], in assay [8] and in assay [9] were > 28.3 µM, > 100 µM and > 100 µM, respectively.

Consider `CCCCCC/C=C\CCCCCCCCCC1=CC(=O)C=C(OC)C1=O`, for which the TGI turned out to be 3.24 µM in [2]; 6.74 µM in [3]; 13.1 µM in [10]; 13.1 µM in assay [5]; 20.1 µM in assay [6]; 41.7 µM in [7]. Further, the results for the total growth inhibition concentration (TGI) in assay [8] and in [9] were 27 µM and 16.3 µM, respectively.

For the compound `COc1ccc(-c2ccc(/C=N/n3c(C)nn(CN4CCN(C)CC4)c3=S)o2)c([N+](=O)[O-])c1`, the GI50 was 22 µM in assay [1]; 52.5 µM in [2]; 54.4 µM in assay [3]; 30.2 µM in assay [10]; 14.9 µM in assay [4]; > 100 µM in assay [5]. The GI50 in assay [6] is 58.3 µM; in assay [8], 34.7 µM; in [9], 60.8 µM. The TGI is 61.4 µM in assay [1]; > 100 µM in [2]; > 100 µM in assay [3]; > 100 µM in assay [10]; 33.3 µM in assay [4]; > 100 µM in assay [5]. For the same compound, the TGI in assay [6], in assay [8] and in assay [9] was > 100 µM in each case.

As to `CC(=O)OCC1O[C@@H]([S-])C(OC(C)=O)[C@H](OC(C)=O)[C@@H]1OC(C)=O.[Au+].c1ccc(CN2[CH-]N(Cc3ccccc3)C(c3ccccc3)=C2c2ccccc2)cc1`, the GI50 in assay [1] is 1.99 µM; in [2], 1.99 µM; in assay [3], 1.85 µM; in assay [10], 1.63 µM; in assay [4] it was 2.24 µM; in assay [5], 1.86 µM. For the same compound, the GI50 in assay [7] is 2.51 µM; in assay [8], 1.96 µM; in assay [9], 3.81 µM. The TGI in assay [1] was 5.51 µM; in [2] it was 3.75 µM; in assay [3] it was 3.56 µM; in assay [10], 3.51 µM; in [4] it was 6.12 µM; in assay [5], 3.54 µM. Besides, the total growth inhibition concentration (TGI) in assay [7] was 6.91 µM; in assay [8], 3.66 µM; in assay [9], 21.4 µM.

With `Cc1cc(C)nc(SC2=C(Nc3cccc(Cl)c3C)C(=O)N(Cc3ccccc3)C2=O)n1`, the GI50 in [1], in assay [2], in assay [3], in assay [4], in [5] and in assay [6] was > 160 µM throughout. Besides, the GI50 in assay [7], in assay [8] and in assay [9] was > 160 µM in each case. Further, the TGI in [1], in assay [2], in assay [3], in assay [4], in assay [5] and in assay [6] was > 160 µM throughout. The TGI in assay [7], in assay [8] and in assay [9] was > 160 µM throughout.

On to `CNCCCNc1nc2ccccc2c2c(=O)c3cc(Cl)ccc3sc12`, for which the GI50 in [2] was 1.88 µM; in [3], 1.68 µM; in assay [5] it was 13.3 µM; in [7], 1.72 µM; in assay [8] it was 1.69 µM; in [9] it was 1.55 µM. Besides, the TGI came to 3.54 µM in assay [2]; 3.12 µM in [3]; 40.5 µM in assay [5]; 4.31 µM in assay [7]; 3.34 µM in [8]; 3.04 µM in [9].

With `C[C@H]1C(Oc2ccc(O)cc2)OC2OC3(C)CCC4[C@H](C)CCC1C24OO3` (stereo partly specified), the GI50 was 8.52 µM in assay [1]; 0.867 µM in assay [2]; 16.3 µM in assay [3]; 19.1 µM in assay [10]; 0.57 µM in assay [4]; 8.34 µM in [5]. For the same compound, the GI50 in assay [6] was 17.1 µM; in assay [7], 11.9 µM; in assay [9] it was 12.2 µM. Besides, the total growth inhibition concentration (TGI) in assay [1] was > 100 µM; in assay [2] it was 13.7 µM; in assay [3] it was 33 µM; in [10] it was 41.3 µM; in assay [4], 24.4 µM; in assay [5], 23.7 µM. Also, the values for the TGI in [6], in assay [7] and in assay [9] were 36.5 µM, 32.7 µM and 30.6 µM, respectively.

With `CC(=O)OC1CC2C(C)(C)C(=O)C=CC2(C)C2CCC3(C)C(c4ccoc4)OC(=O)C4OC43C12C` (stereo unspecified), the TGI in [2] is 21.7 µM; in assay [3], 26.6 µM; in [10] it was 27.2 µM; in assay [4] it was > 100 µM; in assay [5] it was 44.4 µM; in assay [6] it was > 100 µM. In addition, the total growth inhibition concentration (TGI) is > 100 µM in assay [7], 14.2 µM in assay [8] and 86.9 µM in assay [9].

`CNC1C(O)C(OC2C(N)CC(N)C(OC3OC(C(C)O)C(O)C(O)C3N)C2O)OCC1(C)O` (stereo unspecified): the TGI in assay [1], in assay [2], in [3], in assay [4], in assay [5] and in assay [6] was > 100 µM each time. Moreover, the TGI in [7], in [8] and in [9] was > 100 µM each time.

In the case of `CCOC(=O)c1cc2c(n1Cc1ccccc1)-c1oncc1CC2`, the GI50 in [1] was 4.92 µM; in [2], 3.93 µM; in assay [3], 4.04 µM; in [10] it was 6.88 µM; in [4], 2.4 µM; in [6], 7 µM. For the same compound, the GI50 in assay [7] is 2.75 µM; in assay [8], 7.87 µM; in [9], 4.93 µM. For the same compound, the total growth inhibition concentration (TGI) is > 100 µM in assay [1]; 14.2 µM in assay [2]; 25.4 µM in [3]; 30.9 µM in assay [10]; 6.59 µM in assay [4]; > 100 µM in [6]. For the same compound, the TGI in assay [7] is 17.5 µM; in assay [8] it was 37.1 µM; in assay [9], > 100 µM.
